Reference: patent publication EP2844225B1, “AVERMECTIN POUR-ON FORMULATION WITH REDUCED WITHDRAWAL TIME” (Norbrook Laboratories Limited, priority 2012, dated 2013)
Values joined by “and” are separate entries in the source; they are usually repeats but may differ in a detail not shown here. Equal values may be shown once.

Test: Plasma levels of eprinomectin in cattle after topical pour-on administration (HPLC with fluorescence detection)
Settings: for Plasma concentration of eprinomectin: 0.5 mg/kg bodyweight, individual animals
Method: Twenty beef cattle of mixed gender and aged approximately between 10-20 months at the time of selection were used to determine the levels of eprinomectin in plasma following topical administration of the composition set forth in Table 1 below at a dose rate of 0.5mg/kg of eprinomectin.
The composition was administered along the midline of the back in a narrow strip between the withers and the tailhead using 60 ml syringes graduated to 1 ml. […] Blood samples were collected from each animal by venipuncture from the jugular vein using suitably labelled 9ml heparinised vacutainers. Following collection, samples were placed on ice protected from light under black cover prior to centrifugation. After centrifugation at 4500 revolutions per minute (RPM) for 5 minutes, the plasma was subsampled into 3 amber cryovials (-1ml plasma/cryovial). Plasma samples were stored at <-20°C until assayed. All samples were assayed for the determination of eprinomectin content, measured as eprinomectin B 1 a (hereafter referred to as eprinomectin) by HPLC.

[1] = bovine, in vivo, topical or ocular, 0.5 mg/kg

CC[C@H](C)[C@H]1O[C@]2(C=C[C@@H]1C)C[C@@H]1C[C@@H](C/C=C(\C)[C@@H](O[C@H]3C[C@H](OC)[C@@H](O[C@H]4C[C@H](OC)[C@H](NC(C)=O)[C@H](C)O4)[C@H](C)O3)[C@@H](C)/C=C/C=C3\CO[C@@H]4[C@H](O)C(C)=C[C@@H](C(=O)O1)[C@]34O)O2 [eprinomectin]
AUC [1]: 7.84 ± 2.7 µg·h/mL | Cmax [1]: 0.0455 ± 0.0184 µg/mL | Tmax [1]: 96 h | concentration at 24 h (bovine, in vivo, topical or ocular, 0.5 mg/kg, mean plasma concentrations ± SD, cattle, topical, 24 hours, mean of all animals): 0.0143 ± 0.00509 µg/mL | concentration at 240 h (bovine, in vivo, topical or ocular, 0.5 mg/kg, mean plasma concentrations, cattle, topical, 240 hours post administration, mean ± SD): 0.015 ± 0.00669 µg/mL | concentration at 408 h (bovine, in vivo, topical or ocular, 0.5 mg/kg, mean plasma concentrations, cattle, topical, 408 hours, mean ± SD): 0.0029 ± 0.00115 µg/mL | Plasma concentration of eprinomectin (cattle, topical, time point 0 hrs (pre-treatment)): <0.001 µg/mL | Plasma concentration of eprinomectin (cattle, topical, time point 24 hrs, 0.5 mg/kg, 1440 min): 0.0176 µg/mL and 0.0169 µg/mL and 0.0202 µg/mL and 0.0102 µg/mL and 0.0146 µg/mL and 0.00661 µg/mL and 0.00598 µg/mL | Plasma concentration of eprinomectin (cattle, topical, time point 48 hrs, 0.5 mg/kg, 2880 min): 0.0247 µg/mL and 0.0367 µg/mL and 0.0277 µg/mL and 0.0235 µg/mL and 0.0267 µg/mL and 0.0127 µg/mL and 0.00829 µg/mL | Plasma concentration of eprinomectin (cattle, topical, time point 72 hrs, 0.5 mg/kg, 4320 min): 0.0303 µg/mL and 0.0498 µg/mL and 0.0301 µg/mL and 0.0391 µg/mL and 0.0369 µg/mL and 0.0174 µg/mL and 0.0135 µg/mL | Plasma concentration of eprinomectin (cattle, topical, time point 96 hrs, 0.5 mg/kg, 5760 min): 0.0322 µg/mL and 0.0569 µg/mL and 0.0361 µg/mL and 0.0385 µg/mL and 0.0453 µg/mL and 0.0199 µg/mL | Plasma concentration of eprinomectin (cattle, topical, time point 120 hrs, 0.5 mg/kg, 7200 min): 0.0248 µg/mL and 0.0765 µg/mL and 0.027 µg/mL and 0.0338 µg/mL and 0.0447 µg/mL and 0.0252 µg/mL | Plasma concentration of eprinomectin (cattle, topical, time point 144 hrs, 0.5 mg/kg, 8640 min): 0.0205 µg/mL and 0.0717 µg/mL and 0.0245 µg/mL and 0.0406 µg/mL and 0.0447 µg/mL and 0.0283 µg/mL | Plasma concentration of eprinomectin (cattle, topical, time point 192 hrs, 0.5 mg/kg, 11520 min): 0.0108 µg/mL and 0.0441 µg/mL and 0.0158 µg/mL and 0.0311 µg/mL and 0.0381 µg/mL and 0.0216 µg/mL | Plasma concentration of eprinomectin (cattle, topical, time point 216 hrs, 0.5 mg/kg, 12960 min): 0.00941 µg/mL and 0.0311 µg/mL and 0.0134 µg/mL and 0.0317 µg/mL and 0.0312 µg/mL and 0.0168 µg/mL and 0.0144 µg/mL | Plasma concentration of eprinomectin (cattle, topical, time point 240 hrs, 0.5 mg/kg, 14400 min): 0.00712 µg/mL and 0.0217 µg/mL and 0.0103 µg/mL and 0.0292 µg/mL and 0.0243 µg/mL and 0.0133 µg/mL and 0.0112 µg/mL | Plasma concentration of eprinomectin (cattle, topical, time point 312 hrs, 0.5 mg/kg, 18720 min): 0.00414 µg/mL and 0.0107 µg/mL and 0.00453 µg/mL and 0.0145 µg/mL and 0.0103 µg/mL and 0.00849 µg/mL and 0.00376 µg/mL | Plasma concentration of eprinomectin (cattle, topical, time point 336 hrs, 0.5 mg/kg, 20160 min): 0.00267 µg/mL and 0.00698 µg/mL and 0.00327 µg/mL and 0.0108 µg/mL and 0.00874 µg/mL and 0.00794 µg/mL and 0.00394 µg/mL | Plasma concentration of eprinomectin (cattle, topical, time point 360 hrs, 0.5 mg/kg, 21600 min): 0.0019 µg/mL and 0.00546 µg/mL and 0.00221 µg/mL and 0.00823 µg/mL and 0.00719 µg/mL and 0.00554 µg/mL and 0.00337 µg/mL | Plasma concentration of eprinomectin (cattle, topical, time point 408 hrs, 0.5 mg/kg, 24480 min): 0.00145 µg/mL and 0.00279 µg/mL and 0.00128 µg/mL and 0.00489 µg/mL and 0.00457 µg/mL and 0.00406 µg/mL and 0.00213 µg/mL
